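Interpolation was linear, between the two tested concentrations surrounding the appropriate level; five concentrations were tested over 48 hours in 96-well plates. GI50 is the concentration that inhibits growth by half.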 Activity calls are given as the source filed them. No stated cut-off is given here; in the data, active = GI50 up to about 1.1 µM and inactive = higher.
Key:
Assay in all cases: growth of human tumour cells (NCI), 48 h
[1] = tested on: LXFL 529
[2] = tested on: SN12C
[3] = tested on: OVCAR-3
[4] = tested on: KM12
[5] = tested on: COLO 205
[6] = tested on: TK-10
[7] = tested on: 786-0
[8] = tested on: SNB-19
[9] = tested on: CCRF-CEM
[10] = tested on: NCI-H23
[11] = tested on: NCI-H522
[12] = tested on: UACC-257
[13] = tested on: OVCAR-4
[14] = tested on: HCT-116
[15] = tested on: ACHN
[16] = tested on: OVCAR-8
[17] = tested on: IGROV-1

Measured: GI50

O=C1c2ccccc2C(=O)c2sc(Nc3ccc(Cl)cc3)nc21
inactive: [1] 1.69 µM | [2] 1.85 µM | [3] 1.51 µM | [4] 2.04 µM | [5] 7.16 µM | [6] 5.89 µM | [7] 1.6 µM | [8] 5.73 µM | [9] 1.32 µM | [10] 1.55 µM | [11] 1.61 µM | [12] 1.75 µM | [13] 1.65 µM | [14] 1.64 µM | [15] 1.57 µM | [16] 1.75 µM | [17] 2.44 µM

c1cc2c(cc1C1OCC3C(c4ccc5c(c4)OCO5)OCC13)OCO2 (centres undefined)
inactive: [1] 37.8 µM | [2] 92.3 µM | [3] 84.1 µM | [4] 58.9 µM | [5] 67.8 µM | [6] 78.9 µM | [7] > 100 µM | [8] > 100 µM | [9] 32.3 µM | [10] 38.5 µM | [11] 65.8 µM | [12] 53.8 µM | [13] > 100 µM | [14] 51.5 µM | [15] 80.7 µM | [16] 85.3 µM | [17] 75.2 µM

O=C1CCCCCCCCCCC(=O)C2CCOCCOCCOCCC1Cc1cccc(n1)C2
inactive: [1] 59.8 µM | [2] 64.9 µM | [3] 40.6 µM | [4] 59.3 µM | [5] 93.3 µM | [6] > 100 µM | [7] > 100 µM | [8] > 100 µM | [9] 59.2 µM | [10] > 100 µM | [11] 43.9 µM | [12] > 100 µM | [13] 51.5 µM | [14] 88.7 µM | [15] 69.8 µM | [16] 59.3 µM | [17] 90.4 µM

CCC(O)(c1ccc(OC)cc1)C(c1ccc(OCc2ccccc2)cc1)c1ccc(OCc2ccccc2)cc1 (centres undefined)
inactive: [1] > 100 µM | [2] 99.5 µM | [3] > 100 µM | [4] > 100 µM | [5] > 100 µM | [6] > 100 µM | [7] > 100 µM | [8] > 100 µM | [9] > 100 µM | [10] > 100 µM | [11] > 100 µM | [12] > 100 µM | [13] > 100 µM | [14] > 100 µM | [15] > 100 µM | [16] > 100 µM | [17] > 100 µM

O=C1C(=O)N(c2cc(Cl)ccc2Cl)C(=O)C(=O)C1c1nc2ccccc2s1
inactive: [1] 82.2 µM | [2] > 100 µM | [3] > 100 µM | [4] > 100 µM | [5] > 100 µM | [6] > 100 µM | [7] > 100 µM | [8] > 100 µM | [9] 62.4 µM | [10] > 100 µM | [11] > 100 µM | [12] 98.2 µM | [13] > 100 µM | [14] 66.5 µM | [15] > 100 µM | [16] > 100 µM | [17] > 100 µM

COC(=O)C(Cc1nc2ccc(Cl)cc2nc1O)C(=O)C(=O)Nc1ccccc1[N+](=O)[O-] (centres undefined)
inactive: [1] > 100 µM | [2] > 100 µM | [3] > 100 µM | [4] > 100 µM | [5] > 100 µM | [6] > 100 µM | [7] > 100 µM | [8] > 100 µM | [9] > 100 µM | [10] > 100 µM | [11] > 100 µM | [12] > 100 µM | [13] > 100 µM | [14] > 100 µM | [15] > 100 µM | [16] > 100 µM | [17] > 100 µM

CC1(C)OC(=O)C(c2cccs2)C(=O)O1
inactive: [1] > 100 µM | [2] > 100 µM | [3] > 100 µM | [4] > 100 µM | [5] > 100 µM | [6] > 100 µM | [7] > 100 µM | [8] > 100 µM | [9] > 100 µM | [10] > 100 µM | [11] > 100 µM | [12] > 100 µM | [13] > 100 µM | [14] > 100 µM | [15] > 100 µM | [16] > 100 µM

Cn1nc(N)nc1N=S(C)(C)=N
inactive: [1] > 100 µM | [2] > 100 µM | [3] > 100 µM | [4] > 100 µM | [5] > 100 µM | [6] > 100 µM | [7] > 100 µM | [8] > 100 µM | [9] > 100 µM | [10] > 100 µM | [11] 83.9 µM | [12] > 100 µM | [13] > 100 µM | [15] > 100 µM | [16] > 100 µM | [17] > 100 µM
